According to patent US11850238B2, “Use of a thienopyridone derivative in the treatment of adrenoleukodystrophy or adrenomyeloneuropathy” (POXEL, priority 2020, dated 2023):
Like-named read-outs stand apart in the source and are kept apart here.

Tests used:
[1] = test system: AMN human patient-derived primary fibroblasts; assay: Hexacosanoic acid (VLCFA) level in AMN patient-derived fibroblasts, LC-MS; type: cell-based; conditions: AMN patient-derived fibroblasts
Method: In order to compare the efficacy of PXL770 and metformin to lower very long chain fatty acids (VLCFA) in vitro, the study focuses on the level assessment of the hexacosanoic acid, which is the most prevalent VLCFA, in healthy control cells and in AMN human patient-derived primary fibroblasts. The cell lines were obtained from Coriell Cell Repositories. Fibroblasts were cultured in DMEM with 15% FBS. The cultures were split in 1:5 ratio. Fibroblasts from healthy patients were used as control. All treatments were in complete media containing fetal bovine serum (FBS, 15%). All cultured cells were maintained at 37° C. in 5% CO2.
VLCFA content was then measured as follows. Samples are adjusted to a final volume of 0.5-1 ml with LC-MS grade water and spiked with 10 ng of Lignoceric acid-d4 as an internal standard. The sample is acidified to pH 3-4 with dilute hydrochloric acid and extracted with isooctane-ethyl acetate (9:1) three times with equal volume. The extract is dried under nitrogen and the residue is reconstituted in methanol-water-ammonium acetate (75:25:10 mM).
Total fatty acids: After preparing the samples with internal standard as described above for free fatty acids, aqueous sodium hydroxide is added to a final concentration of 1 M. The mixture is incubated at 37° C. in dark under nitrogen for 3 h. The samples are then acidified, extracted, and reconstituted as described above.
LC-MS analysis of fatty acids: The reconstituted fatty acid extracts are subjected to HPLC on Targa C8 column (2×10 mm) using methanol-aqueous ammonium acetate (10 mM) solvent mixture. The column is eluted with a gradient of methanol (75 to 90%) over 8 min at a flow rate of 0.25 ml/min. The column eluent is directly introduced to mass analyzer (QTRAP5500) and monitored for fatty acids using published pseudo MRM method. Under these conditions, the VLCFA elute between 5 and 8 min. Each fatty acid is quantitated against the added internal standard.
The study planned different groups of patients. First, the evolution of hexacosanoic acid in fibroblasts is monitored in healthy control cells and in AMN human patient-derived primary fibroblasts; and in a second time a treatment of PXL770 was assigned to AMN human-derived primary fibroblasts in culture at different doses (PXL770: 0.1, 0.5, 1, 2, 3.5 and 5 μM; metformin: 100, 200, 300 and 400 μM) for one week and the level of hexacosanoic acid was measured.
The experiment described in Example 3 was reproduced with various thienopyridone compounds, namely: • PXL770: potassium 2-chloro-3-(5-hydroxytetralin-6-yl)-6-oxo-5-phenyl-7H-thieno[2,3-b]pyridin-4-olate • PXL700: 2-chloro-4-hydroxy-3-indan-5-yl-5-(3-pyridyl)-7H-thieno[2,3-b]pyridin-6-one • PXL702: 2-chloro-4-hydroxy-3-(4-hydroxyindan-5-yl)-5-phenyl-7H-thieno[2,3-b]pyridin-6-one • PXL695: 2-chloro-5-(3-fluorophenyl)-4-hydroxy-3-(4-hydroxyindan-5-yl)-7H-thieno[2,3-b]pyridin-6-one, • each tested at concentrations from 0.1 to 5 μM.
A one-way ANOVA with Dunnett's multiple comparison test was performed to assess the effect of PXL770 on brain's VLCFAs (**** p<0.0001, *** p<0.001). A Kruskal-Wallis test with Dunn's multiple comparison test was performed to assess the effect of PXL770 on plasma's VLCFAs (**** p<0.0001, […]).

ABCD2 [2] = conditions: AMN patient's derived fibroblasts, 5 mM; FIG. 11; cited from earlier work
[3] = test system: ALD patient-derived lymphocytes; conditions: ALD patient's derived lymphocytes, 5 mM, 7 days of treatment; FIG. 9; cited from earlier work
cultured fibroblasts = conditions: cited from earlier work
[4] = test system: AMN human patient-derived primary lymphocytes; conditions: AMN patient's derived lymphocytes, 5 mM, 7 days of treatment; FIG. 9; cited from earlier work
ABCD2 [5] = conditions: ABCD1-KO mice glial cells, 100 μM; FIG. 12; cited from earlier work
ABCD2 [6] = conditions: ALD patient's derived fibroblasts, 5 mM; FIG. 11; cited from earlier work
[7] = concentrations from 0.1 to 5 μM, FIG. 14

O=c1[nH]c2sc(Cl)c(-c3ccc4c(c3O)CCC4)c2c(O)c1-c1cccc(F)c1 [PXL695, 2-chloro-5-(3-fluorophenyl)-4-hydroxy-3-(4-hydroxyindan-5-yl)-7H-thieno[2,3-b]pyridin-6-one]
VLCFA levels [1, 7]: comparable decrease

CN(C)C(=N)N=C(N)N [metformin]
ABCD2 protein expression (ABCD2 [2]): only slightly increased
decrease of VLCFA content [3]: −42%
dose at which efficacy is observed (cultured fibroblasts): at least 100 μM
VLCFA levels ([1]; 400 μM, compared with thienopyridones at 5 μM, FIG. 15): no or a very limited effect
decrease of VLCFA content [4]: −29%
ABCD2 protein levels (ABCD2 [5]): limited increase
ABCD2 protein expression (ABCD2 [6]): only slightly increased

O=c1[nH]c2sc(Cl)c(-c3ccc4c(c3O)CCC4)c2c(O)c1-c1ccccc1 [PXL702, 2-chloro-4-hydroxy-3-(4-hydroxyindan-5-yl)-5-phenyl-7H-thieno[2,3-b]pyridin-6-one]
VLCFA levels [1, 7]: comparable decrease

O=c1[nH]c2sc(Cl)c(-c3ccc4c(c3)CCC4)c2c(O)c1-c1cccnc1 [PXL700, 2-chloro-4-hydroxy-3-indan-5-yl-5-(3-pyridyl)-7H-thieno[2,3-b]pyridin-6-one, reference compound]
VLCFA levels [1, 7]: no or a very limited effect
